Measurements taken from US20180325781A1, “FORMULATIONS FOR CONTROLLED RELEASE OF BUPIVACAINE” (Research Triangle Institute, priority 2017, published 2018).
Where a name gives a salt, the structure may show the parent alone.

Tests used:
[1] = diffusion/release of free (unencapsulated) BP through hemostat matrix, dialysis method; format: physicochemical; settings: 1 mg free BP-HCl in 50 or 100 mg Gelfoam or Avitene; 1xPBS pH 7.2, 37° C.; over 24 hours
Procedure: FIG. 5 is a graphical representation of the release of unencapsulated BP from matrix material. 1 mg of free BP—HCl in 0.9 wt/vol % NaCl was combined with either Gelfoam® or Avitene™ (at either 50 mg or 100 mg of matrix) and monitored for release through the matrix over time. The samples were placed in dialysis tubing and submerged in 1×PBS (pH=7.2) at 37° C.
To test the diffusion of free BP (i.e., not encapsulated in microparticles) through the hemostat, the material (i.e., free BP mixed with hemostat) was submerged in physiological media and the released BP measured over time.
In vitro release studies were performed using a dialysis method. […]
UHPLC analysis of released BP was performed on a Waters (Milford, Mass.) ACQUITY UHPLC system equipped with a PDA detector set to 205 nm to quantify BP. […]
The acid form of BP was chromatographically separated on a Waters ACQUITY BEH C18 column (1.7 μm, 2.1×50 mm) by isocratic elution with 70% phosphate buffer/30% ACN at a flow rate of 0.60 mL/min. […] Calibration standards were analyzed and the peaks corresponding to BP were integrated, plotted against the concentration, and the calibration curve was calculated by linear least-squares regression without weighting. […]

[2] = single injection; cited from earlier work

| SMILES | release of free BP from the hemostat [1] | complete elimination [2] | time to maximum plasma drug concentration [2] |
| --- | --- | --- | --- |
| CCCCN1CCCCC1C(=O)Nc1c(C)cccc1C (stereo not drawn) [free BP, bupivacaine hydrochloride monohydrate] | majority of free BP was released | – | – |
| CCCCN1CCCCC1C(=O)Nc1c(C)cccc1C (stereo not drawn) [bupivacaine] | – | 6 to 8 h | 30 to 45 min |
